Data reported in patent US10538497B2, “Compounds as indoleamine 2,3-dioxygenase inhibitors” (Merck Sharp & Dohme Corp., priority 2015, dated 2020).

Assays:
IDO1 [1] = biological target: T1, IDO1 (Homo sapiens (Human), UniProt P14902); assay: IDO1 Cellular Assay in Frozen HEK293 Cells Transiently Transfected with Human IDO1; assay type: cell-based; details: read-out: IDO1 HEK293 Cell Assay, IC50
IDO1 [2] = biological target: T1, IDO1; assay: IDO1 Cellular Assay in Hela Cells Stimulated with IFNγ; assay type: cell-based; details: Hela cells stimulated with IFNγ 100 ng/mL; read-out: IDO1 HELA Cell Assay, IC50
IDO1 [3] = biological target: T1, IDO1; assay: IDO1 Enzyme Assay; details: HIS-tagged recombinant IDO1, 40 nM
IDO1 [4] = biological target: T1, IDO1; assay: IDO1 Human Whole Blood Assay; assay type: cell-based; details: LPS and IFNγ 100 ng/mL, kynurenine by LC/MS/MS
Experimental: IDO1 Human Whole Blood Assay
LPS and IFNγ was prepared in RPMI to a 10× of final conc. (1000 ng/mL), final concentration is 100 ng/mL.
Human whole blood was drawn in sodium heparin coated tubes from healthy internal donors. Two hundred fourty μL of blood was transferred to each of the wells of a v-bottom 96 well plate. Thirty μL of compound was transferred from intermediate dilution plate, and incubated for 15 min. […] from stimulants was then transferred to blood and mixed thoroughly. Plate was covered with breathable membrane and incubated at 37° C. for overnight (18 h).
On day 2 isotope labeled standard of kunurenine and tryptophan was made in water at 10× concentration and 30 μL was added to the blood at 3 μM final concentration. The assay plates were centrifuged at 300×G for 10 min with no brake to separate plasma from red blood cells. Sixty μL of plasma samples was removed without disturbing red blood cells. Plasma was diluted with RPMI in 1:1 ratio and proteins were precipitated out with two volume of Acetonitrile. The plates was centrifuged at 4000×G for 60 min. Twenty μL of supernatant was carefully transferred to a 384 well plate contain 40 μL of 0.1% formic acid in water and analysed by LC/MS/MS.
LC/MS/MS analyses were performed using Thermo Fisher's LX4-TSQ Quantum Ultra system. This system consists of four Agilent binary high-performance liquid chromatography (HPLC) pumps and a TSQ Quantum Ultra triple quadrupole MS/MS instrument. For each sample, 5 μL were injected onto an Atlantis T3 column column (2.1 mm×150 mm, 3 μm particle size) from Waters. The mobile phase gradient pumped at 0.8 mL/min was used to elute the analytes from the column at 25° C. The elution started at 0% B increasing linearly to 25% B at 6.5 min, holding at 25% for 1 min, re-equilibrating to 10 min. Mobile phase A consisted of 0.1% formic acid in water. Mobile phase B consisted of 0.1% of formic acid in acetonitrile. Data was acquired in positive mode using a HESI interface. The operational parameters for the TSQ Quantum Ultra instrument were a spray voltage of 4000 V, capillary temperature of 380° C., vaporizer temperature 400° C., shealth gas 60 arbitrary units, Aux gas 20 arbitrary units, tube lens 85 and collision gas 1.2 mTorr. SRM chromatograms of kynurenine (Q1: 209.2>Q3:94.0) and internal standard (Q1: 215.3>Q3:98.2) were collected for 90 sec. The peak area was integrated by Xcalibur Quan software. The ratios between the kynurenine generated in the reaction and 2D6-Kynurenine spiked-in internal standard were used to generate percentage inhibition and IC50 values. Compounds were titrated and IC50's were calculated by 4 parameter sigmoidal curve fitting formula.

[5] = HEK293 cells transiently transfected with human IDO1
[6] = read-out: IDO1 Enzyme Assay, IC50

T1 sequence (P14902 whole entry): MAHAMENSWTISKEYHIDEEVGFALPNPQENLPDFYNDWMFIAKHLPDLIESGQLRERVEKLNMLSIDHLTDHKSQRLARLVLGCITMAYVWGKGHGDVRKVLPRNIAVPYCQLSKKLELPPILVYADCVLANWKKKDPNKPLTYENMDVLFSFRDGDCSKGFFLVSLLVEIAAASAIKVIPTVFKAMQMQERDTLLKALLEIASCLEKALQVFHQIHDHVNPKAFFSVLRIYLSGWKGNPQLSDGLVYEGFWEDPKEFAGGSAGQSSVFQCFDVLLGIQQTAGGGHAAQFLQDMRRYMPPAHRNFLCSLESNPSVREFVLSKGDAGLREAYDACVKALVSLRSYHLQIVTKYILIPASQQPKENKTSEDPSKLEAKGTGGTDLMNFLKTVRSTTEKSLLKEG

| SMILES | IC50 (IDO1 [1]; [5]) | IC50 (IDO1 [2]) | IC50 (IDO1 [3]; [6]) | IC50 (IDO1 [4]) | IC50 (IDO1 [3]; IDO1 Enzyme Assay, IC50, nM) | IC50 (IDO1 [1]) |
| --- | --- | --- | --- | --- | --- | --- |
| CN1C(=O)NC[C@H]1CSc1nonc1/C(=N/O)Nc1ccc(F)c(C#N)c1 [Example 146] | 222 nM | 398 nM | 155 nM | 1400 nM | – | – |
| CC(C)(O)C(O)CSc1nonc1/C(=N/O)Nc1ccc(F)c(Cl)c1 (single isomer, unassigned) [Example 190, N-(3-chloro-4-fluorophenyl)-4-[(2,3-dihydroxy-3-methylbutyl)sulfanyl]-N′-hydroxy-1,2,5-oxadiazole-3-carboximidamide] | 56.8 nM | 111 nM | – | 1390 nM | 79.1 nM | – |
| N#Cc1cc(N/C(=N\O)c2nonc2SC[C@@H]2CCC(=O)N2)ccc1F [Example 149, N-(3-cyano-4-fluorophenyl)-N′-hydroxy-4-({[(2S)-5-oxopyrrolidin-2-yl]methyl}sulfanyl)-1,2,5-oxadiazole-3-carboximidamide] | 120 nM | 285 nM | 110 nM | 1050 nM | – | – |
| N#Cc1cc(N/C(=N\O)c2nonc2SCCNC(=O)CO)ccc1F [Example 182, N-[2-({4-[N-(3-cyano-4-fluorophenyl)-N′-hydroxycarbamimidoyl]-1,2,5-oxadiazol-3-yl}sulfanyl)ethyl]-2-hydroxyacetamide] | 186 nM | 321 nM | 135 nM | 526 nM | – | – |
| N#Cc1cc(N/C(=N\O)c2nonc2SC[C@H]2CCC(=O)N2)ccc1F [Example 148, N-(3-cyano-4-fluorophenyl)-N′-hydroxy-4-({[(2R)-5-oxopyrrolidin-2-yl]methyl}sulfanyl)-1,2,5-oxadiazole-3-carboximidamide] | 209 nM | 303 nM | 172 nM | 1760 nM | – | – |
| CS(=O)(=O)NCCSc1nonc1/C(=N/O)Nc1ccc(F)c(C#N)c1 [Example 171, N-(3-cyano-4-fluorophenyl)-N′-hydroxy-4-({2-[(methylsulfonyl)amino]ethyl}sulfanyl)-1,2,5-oxadiazole-3-carboximidamide] | 30.8 nM | 120 nM | 110 nM | 660 nM | – | – |
| CNC(=O)NCCSc1nonc1/C(=N/O)Nc1ccc(F)c(Br)c1 [Example 45, N-(3-bromo-4-fluorophenyl)-N′-hydroxy-4-((2-(3-methylureido)ethyl)thio)-1,2,5-oxadiazole-3-carboximidamide] | – | 47.7 nM | 22.5 nM | 405 nM | – | 24.3 nM |
| OC[C@@H](O)CSc1nonc1/C(=N/O)Nc1ccc(F)c(Cl)c1 [Example 169, N-(3-chloro-4-fluorophenyl)-4-{[(2R)-2,3-dihydroxypropyl]sulfanyl}-N′-hydroxy-1,2,5-oxadiazole-3-carboximidamide] | 93.7 nM | 191 nM | 52.8 nM | 1290 nM | – | – |
| CC(C)(O)C(O)CSc1nonc1/C(=N/O)Nc1ccc(F)c(Cl)c1 (single isomer, unassigned) [Example 189, N-(3-chloro-4-fluorophenyl)-4-[(2,3-dihydroxy-3-methylbutyl)sulfanyl]-N′-hydroxy-1,2,5-oxadiazole-3-carboximidamide] | 39.9 nM | 66 nM | – | 704 nM | 69.4 nM | – |
| OC[C@@H](O)CSc1nonc1/C(=N/O)Nc1ccc(F)c(C(F)F)c1 [Example 168, N-[3-(difluoromethyl)-4-fluorophenyl]-4-{[(2R)-2,3-dihydroxypropyl]sulfanyl}-N′-hydroxy-1,2,5-oxadiazole-3-carboximidamide] | 55.1 nM | 111 nM | 69.1 nM | 475 nM | – | – |

More lines, main results first:

| IC50 (IDO1 [1]; [5]) | IC50 (IDO1 [2]) | IC50 (IDO1 [3]; [6]) | IC50 (IDO1 [4]) | IC50 (IDO1 [3]; IDO1 Enzyme Assay, IC50, nM) | SMILES | IC50 (IDO1 [1]) |
| --- | --- | --- | --- | --- | --- | --- |
| 45 nM | 131 nM | 51.9 nM | 745 nM | – | N[C@H](CO)CSc1nonc1/C(=N/O)Nc1ccc(F)c(Br)c1 [Example 125, 4-{[(2R)-2-amino-3-hydroxypropyl]sulfanyl}-N-(3-bromo-4-fluorophenyl)-N′-hydroxy-1,2,5-oxadiazole-3-carboximidamide] | – |
| 281 nM | 223 nM | 125 nM | 1720 nM | – | O=C(CSc1nonc1/C(=N/O)Nc1ccc(F)c(Br)c1)NC[C@H](O)CO [Example 175, 2-({4-[N-(3-bromo-4-fluorophenyl)-N′-hydroxycarbamimidoyl]-1,2,5-oxadiaxol-3-yl}sulfanyl)-N-[(2S)-2,3-dihydroxypropyl]acetamide] | – |
| 23.6 nM | 61 nM | – | 784 nM | 81.3 nM | CC(C)(O)C(O)CSc1nonc1/C(=N/O)Nc1ccc(F)c(Br)c1 (centres unmarked) [Example 29, N-(3-bromo-4-fluorophenyl)-4-((2,3-dihydroxy-3-methylbutyl)thio)-N′-hydroxy-1,2,5-oxadiazole-3-carboximidamide] | – |
| 206 nM | 94.8 nM | – | 7110 nM | – | CNc1c(NCCSc2nonc2/C(=N/O)Nc2ccc(F)c(Br)c2)c(=O)c1=O [Example 36, N-(3-bromo-4-fluorophenyl)-N′-hydroxy-4-((2-((2-(methylamino)-3,4-dioxocyclobut-1-en-1-yl)amino)ethyl)thio)-1,2,5-oxadiazole-3-carboximidamide] | – |
| 83.1 nM | 59.4 nM | 104 nM | 469 nM | – | CC(=O)NCCSc1nonc1/C(=N/O)Nc1ccc(F)c(C#N)c1 [Example 37, N-(2-((4-(N-(3-cyano-4-fluorophenyl)-N′-hydroxycarbamimidoyl)-1,2,5-oxadiazol-3-yl)thio)ethyl)acetamide] | – |
| 155 nM | 246 nM | 93.7 nM | 827 nM | – | CC(=O)N[C@H](CO)CSc1nonc1/C(=N/O)Nc1ccc(F)c(Br)c1 [Example 173, N-[(1R)-2-({4-[N-(3-bromo-4-fluorophenyl)-N′-hydroxycarbamimidoyl]-1,2,5-oxadiazol-3-yl}sulfanyl)-1-(hydroxymethyl)ethyl]acetamide] | – |
| 22.2 nM | 17.6 nM | 43.1 nM | 150 nM | – | CNC(=O)CSc1nonc1/C(=N/O)Nc1ccc(F)c(Br)c1 [Example 41, 2-((4-(N-(3-bromo-4-fluorophenyl)-N′-hydroxycarbamimidoyl)-1,2,5-oxadiazol-3-yl)thio)-N-methylacetamide] | – |
| 10.2 nM | 37.4 nM | 43.4 nM | 643 nM | – | COCCNS(=O)(=O)NCCSc1nonc1/C(=N/O)Nc1ccc(F)c(Br)c1 [Example 31, N-(3-bromo-4-fluorophenyl)-N′-hydroxy-4-((2-((N-(2-methoxyethyl)sulfamoyl)amino)ethyl)thio)-1,2,5-oxadiazole-3-carboximidamide] | – |
| 549 nM | – | 75.8 nM | 3990 nM | – | O=C(CSc1nonc1/C(=N/O)Nc1ccc(F)c(Br)c1)N[C@@H]1C[C@@H](O)[C@@H](O)C1 [Example 144, 2-({4-[N-(3-bromo-4-fluorophenyl)-N′-hydroxycarbamimidoyl]-1,2,5-oxadiazol-3-yl}sulfanyl)-N-[(1s,3R,4S)-3,4-dihydroxycyclopentyl]acetamide] | – |
| 181 nM | 405 nM | – | – | 161 nM | ON=C(Nc1ccc(F)c(Br)c1)c1nonc1SCCN1CCNCC1 [Example 163, N-(3-bromo-4-fluorophenyl)-N′-hydroxy-4-[(2-piperazin-1-ylethyl)sulfanyl]-1,2,5-oxadiazole-3-carboximidamide] | – |
| 231 nM | 283 nM | 87.8 nM | – | – | O/N=C(\Nc1ccc(F)c(Br)c1)c1nonc1SC1CCNCC1 [Example 72, N-(3-bromo-4-fluorophenyl)-N′-hydroxy-4-(piperidin-4-ylsulfanyl)-1,2,5-oxadiazole-3-carboximidamide] | – |
